Reference: patent publication US20230248775A1, “GENETIC MODIFICATION OF MAMMALIAN CELLS TO CONFER RESISTANCE TO CSF1R ANTAGONISTS” (THE REGENTS OF THE UNIVERSITY OF CALIFORNIA, priority 2021, published 2023)
“Also recorded” adds a separate entry of the source.

Assays:
G795C iPSC-microglia = test: Cell death assay (fluorogenic caspase 3/7, IncuCyte time-lapse imaging), G795C microglia; assay type: cell-based, human; details: 250 nM, 500 nM, 1 μm, 24 hours, compared to DMSO control
Source text: (§1) FIGS. 4A, 4B, 4C, 4D, and 4E show human stem cell-derived microglia are also susceptible to and killed by CSF1R inhibition in vitro. […] Images captured on Incucyte S3 live-cell imager. […] Images captured on Incucyte S3 live-cell imager. […] Images captured on Incucyte S3 live-cell imager. […] Images captured on Incucyte S3 live-cell imager. […] For all panels, n=4 images in six independent wells were quantified. Data represented as mean values±SEM.
(§2) Strategy 1: A crystal structure of the CSF1R receptor bound to an antagonist (PMID: 31434879) to predict amino acid substitutions that may sterically hinder the binding of CSF1R antagonists while not impairing the normal binding of ATP into the same binding pocket. The crystal structure of PLX5622 bound to human CSF1R was obtained and the ATP binding pocket was examined (FIG. 7A). Through molecular modeling single amino acid changes were predicted that would likely impair the binding of PLX5622 or PLX3397 or other CSF1R antagonists while not disrupting normal ATP binding to CSF1R. […] Other mutations could also be explored to prevent binding (FIG. 7D). […] The resulting iPSCs were then differentiated into microglia and exposed to varying concentrations of either PLX3397 or PLX5622. To detect microglial cell death (apoptosis) a caspase-3/7 fluorogenic reporter was used. […] FIG. 4F provided representative images of cell density (phase-contrast microscopy, 1st column) and fluorescent Caspase-3/7 activity (2nd column) across each dose of PLX3397 and PLX5622.
(§3) Resistance to each of the CSF1R inhibitors tested was quantified using a fluorogenic caspase 3/7 detector (Essen BioScience) and time-lapse imaging over 24 hours.
(§4) Cell death assay: iPS-microglia were plated at 70K cells per 96-well plate (6 wells per line per condition). At time 0, all microglia were treated with IncuCyte Caspase-3/7 Green Apoptosis Assay Reagent 1:1000. Cells were maintained in the described medium: fresh complete medium+0.1% DMSO, complete media+250 nM PLX3397, complete medium+500 nM PLX3397, complete medium+[…] PLX3397, complete medium+250 nM PLX5622, complete medium+500 nM PLX5622, complete medium +[…] PLX5622, complete medium+250 nM Edicotinib, complete medium+500 nM Edicotinib, complete medium +1 μm Edicotinib, complete medium+250 nM BLZ945, complete medium+500 nM BLZ945, complete medium +1 μm BLZ945. Four 20× images per well were collected every hour for 24 hours. Using IncuCyte 2020B software, image masks for phase confluence (visually gated out apoptotic cells) as well as caspase 3/7 signal (green) were generated. Graphs display caspase normalized to phase confluence, completed with 3 lines: WT, G795A, G795C (see FIGS. 4A, 4B, 4C, 4D, and 4E).

G795A iPSC-microglia [1] = test: LIVE/DEAD two-color viability/cytotoxicity, G795A microglia; assay type: cell-based, human; details: 500 nM or 1 uM, 24 hours
Description: (§5) FIGS. 5A and 5B show G795A iPSC-derived microglia are resistant to CSF1R antagonist-induced cell death. As cells can die from processes other than caspase-mediated apoptosis, it is important to determine whether the G795A mutation provides a more broad-based resistance to any form of cell death induced by CSF1R antagonists, Therefore, G795A and wild-type (WT) iPSC-microglia were treated for 24 hours with either 500 nM (FIG, 5A) or 1 uM (FIG. 5B) of DMSO vehicle control or one of four CSF1R antagonists; PLX3397, PLX5622, Edicotinib, and BLZ945. The percent of live versus dead cells was then quantified using a two-color viability/cytotoxicity approach (Thermo L3224; LIVE/DEAD™ Viability/Cytotoxicity Kit). Very few dead microglia are observed 24 hours after treatment with DMSO. […] Live cells are denoted with a circle, […]

G795A iPSC-microglia [2] = test: Cell death assay (fluorogenic caspase 3/7, IncuCyte time-lapse imaging), G795A microglia; assay type: cell-based, human; details: 250 nM, 500 nM, 1 μm, 24 hours, compared to DMSO control
Source text: as §1, §2, §3, §4

[3] = tested on: wild-type (WT) unedited human iPSC-microglia; test: Cell death assay (fluorogenic caspase 3/7, IncuCyte time-lapse imaging), WT microglia; assay type: cell-based; details: 250 nM, 500 nM, 1 μm, 24 hours, compared to DMSO control
Source text: as §1, §2, §3, §4

[4] = tested on: wild-type (WT) iPSC-microglia; test: LIVE/DEAD two-color viability/cytotoxicity, WT microglia; assay type: cell-based, human; details: 500 nM or 1 uM, 24 hours
Description: as §5

[5] = tested on: MUT1 (i.e., G795A) microglia; test: RNA-seq transcriptomic response to PLX5622, MUT1 (G795A) microglia; assay type: cell-based, human; details: 24-hour treatment, compared to DMSO-treated cells
Source text: (§6) FIGS. 2A, 2B, 2C, 2D, 2E, and 2F show selected CSF1R mutations have little effect on transcriptomic signature while simultaneously imparting resistance to PLX5622.

WT microglia = test: RNA-seq transcriptomic response to PLX5622, WT microglia; assay type: cell-based, human; details: 24-hour treatment, compared to DMSO-treated cells
Source text: as §6

[6] = tested on: MUT2 (i.e., G795C) microglia; test: RNA-seq transcriptomic response to PLX5622, MUT2 (G795C) microglia; assay type: cell-based, human; details: 24-hour treatment, compared to DMSO-treated cells
Source text: as §6

wild-type human xMGs = test: PLX3397 chow treatment of xenotransplanted mice, wild-type xMGs (IBA-1/Ku80/Ki67 immunohistochemistry); assay type: in vivo, mouse; details: 600 mg/kg of PLX3397 in rodent chow ad libitum, 4 weeks
Source text: (§7) FIGS. 11A, 11B, 11C, 11D, 11E, 11F, 11G, 11H, 11I, and 11J show G795A iPSC-derived microglia are resistant to CSF1R […] treatment and enable robust engraftment of human microglia within the adult mammalian brain. Xenotransplantation-compatible mice received bilateral stereotactic intrahippocampal injections of 500,000 iPSC-derived human microglia (xMGs) at 2-months of age. Mice received xMGs differentiated from either a homozygous CSF1R-resistant G795A human iPSC line or an isogenic unmodified Wild-Type human i PSC. At fours of age, mice were treated with 600 mg/kg of PLX3397 in rodent chow ad libitum for 4 weeks duration. Mice were then sacrificed, and half-brains were examined by fluorescent immunohistochemistry and confocal microscopy.

G795A xMGs = test: PLX3397 chow treatment of xenotransplanted mice, G795A xMGs (IBA-1/Ku80/Ki67 immunohistochemistry); assay type: in vivo, human; details: 600 mg/kg of PLX3397 in rodent chow ad libitum, 4 weeks
Source text: as §7

| Structure (SMILES) | caspase 3/7 levels (cell death / apoptosis) (G795C iPSC-microglia) | cell death (percent of live versus dead cells) (G795A iPSC-microglia [1]) | caspase 3/7 levels (cell death / apoptosis) (G795A iPSC-microglia [2]) | caspase 3/7 levels (cell death / apoptosis) [3] | cell death (percent of live versus dead cells) [4] | transcriptomic alterations (FDR≤0.05; log2(FC)≥±1) [5] | transcriptomic alterations (FDR≤0.05; log2(FC)≥±1) (WT microglia) | transcriptomic alterations (FDR≤0.05; log2(FC)≥±1) [6] | survival of transplanted human xMGs in mouse brain (wild-type human xMGs) | survival / expansion of transplanted human xMGs in mouse brain (G795A xMGs) |
| --- | --- | --- | --- | --- | --- | --- | --- | --- | --- | --- |
| CC1(C)CC=C(c2nc(C3CC(C)(C)OC(C)(C)C3)ccc2NC(=O)c2nc(C#N)c[nH]2)CC1 [Edicotinib] | no significant increase in caspase levels | little-to-no cell death | no significant increase in caspase levels | significant levels of increased caspase | substantial cell death |  |  |  |  |  |
| COc1ncc(F)cc1CNc1ccc(Cc2c[nH]c3ncc(C)cc23)c(F)n1 [PLX5622] | complete resistance to cell death; also recorded: no significant increase in caspase levels | little-to-no cell death | complete resistance to cell death; also recorded: no significant increase in caspase levels | robust dose-dependent induction of apoptosis; also recorded: significant levels of increased caspase | substantial cell death | failed to significantly alter gene expression | induced significant transcriptomic alterations | failed to significantly alter gene expression |  |  |
| CNC(=O)c1cc(Oc2ccc3nc(N[C@@H]4CCCC[C@H]4O)sc3c2)ccn1 [BLZ945] | no significant increase in caspase levels | little-to-no cell death | no significant increase in caspase levels | significant levels of increased caspase | substantial cell death |  |  |  |  |  |
| FC(F)(F)c1ccc(CNc2ccc(Cc3c[nH]c4ncc(Cl)cc34)cn2)cn1 [PLX3397] | complete resistance to cell death; also recorded: no significant increase in caspase levels | little-to-no cell death | complete resistance to cell death; also recorded: no significant increase in caspase levels | robust dose-dependent induction of apoptosis; also recorded: significant levels of increased caspase | substantial cell death |  |  |  | only a handful of wild-type human xMGs survive | proliferate and expand from the initial injection sites |
